Data published in PubChem BioAssay (NCI).
“And” between values parts separate entries of the source, which are not always exact repeats. Identical values can stand only once.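 Briefly, cells in 96-well plates were exposed to five compound concentrations for 48 h, and endpoints were estimated by linear interpolation. GI50: concentration for 50% inhibition of growth. TGI denotes the concentration required for complete inhibition of growth.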

Legend:
Test in all cases: DTP human tumour cell line panel, 48 h
HCT-15 colon = tested on: HCT-15 colon
LOX IMVI melanoma = tested on: LOX IMVI melanoma
NCI-H226 lung = tested on: NCI-H226 lung
OVCAR-3 ovarian = tested on: OVCAR-3 ovarian
OVCAR-5 ovarian = tested on: OVCAR-5 ovarian
PC-3 prostate = tested on: PC-3 prostate
SF-539 CNS = tested on: SF-539 CNS
SN12C renal = tested on: SN12C renal
SNB-19 CNS = tested on: SNB-19 CNS
SNB-75 CNS = tested on: SNB-75 CNS

Structure (SMILES) | TGI (HCT-15 colon) | TGI (LOX IMVI melanoma) | TGI (NCI-H226 lung) [µM] | TGI (OVCAR-3 ovarian) | TGI (OVCAR-5 ovarian) [µM] | TGI (PC-3 prostate) [µM] | TGI (SF-539 CNS) | TGI (SN12C renal) [µM] | TGI (SNB-19 CNS) [µM] | TGI (SNB-75 CNS) | GI50 (HCT-15 colon) | GI50 (LOX IMVI melanoma) | GI50 (OVCAR-3 ovarian) | GI50 (OVCAR-5 ovarian) [µM] | GI50 (SF-539 CNS) | GI50 (SNB-75 CNS) [µM] | GI50 (PC-3 prostate) [nM] | GI50 (SN12C renal) [nM] | GI50 (SNB-19 CNS) [nM]
CN1CCc2nc(N)nc(-c3nc(N)nc4c3CN(C)CC4)c2C1 | > 100 µM | > 100 µM | > 100 | > 100 µM | > 100 | > 100 | > 100 µM | > 100 | > 100 |  |  |  |  |  |  |  |  |  | 
CCOC(=O)N[C@@H]1C(CC(=O)OC)O[C@H]2OC(C)(C)O[C@H]21 (stereo not given in full) | > 100 µM | > 100 µM | > 100 | > 100 µM | > 100 |  | > 100 µM | > 100 |  | > 100 µM |  |  |  |  |  |  |  |  | 
CCCCNC1CCCCC[C@H]1O (stereo not given in full) |  | > 100 µM | > 100 | > 100 µM | > 100 |  | > 100 µM | > 100 | > 100 | > 100 µM |  |  |  |  |  |  |  |  | 
CCOC(=O)/C(C)=C(/O)C(=O)OCC | > 100 µM | > 100 µM | > 100 | > 100 µM | > 100 |  | > 100 µM | > 100 | > 100 | > 100 µM |  |  |  |  |  |  |  |  | 
COc1cc(Cc2nccc3cc(OC)c(OC)cc23)c(C(C)=O)cc1OC | 300 µM and > 750 µM | 300 µM and > 750 µM |  | 300 µM and 203 µM | > 750 |  | > 94.9 µM and 66.1 µM | 30 |  | 300 µM and > 750 µM | 195 µM and 249 µM | 150 µM and 94 µM | 86 µM and 27.7 µM | 204 | 85.3 µM and 19.9 µM | 29.4 |  |  | 
c1ccc(C2N3CCCCC3[C@@H]3c4[nH]c5ccccc5c4CCN23)nc1 (stereo not given in full) | > 100 µM |  |  | > 100 µM | > 100 |  | > 100 µM | > 100 | > 100 | > 100 µM |  |  |  |  |  |  |  |  | 
CC1(C)C(=O)/C(=C\c2cccnc2)C[C@]2(C)[C@H]3CC[C@@H]4[C@H]5[C@H](C(=O)/C=C/c6cccnc6)CC[C@]5(C(=O)O)CC[C@@]4(C)[C@]3(C)CC[C@@H]12 | 4.54 µM | 3.6 µM |  | 3.42 µM | 4.88 | 8.58 | 3.92 µM | 9.76 | 5.69 | 44.2 µM | 1.76 µM | 1.74 µM | 1.76 µM | 2.44 | 1.9 µM | 4.01 | 2410 | 2790 | 2340
OCC1OC(n2cnc3c2NC=NC[C@H]3O)C(Cl)C1O (stereo not given in full) | > 100 µM | > 100 µM |  | > 100 µM | > 100 | > 100 | > 100 µM | > 100 | > 100 | > 100 µM |  |  |  |  |  |  |  |  | 
C=C(C)CCN[Si](c1ccccc1)(c1ccccc1)C(C)(C)C | 48.1 µM | 31.7 µM | 25.5 | 32 µM |  |  | 29.1 µM | 32.7 | 49.2 | 82.2 µM |  |  |  |  |  |  |  |  | 
Cc1nnc(NS(=O)(=O)c2ccc(N=Nc3cc(N=Nc4ccc(S(=O)(=O)Nc5nnc(C)s5)cc4)c4c(NC(=O)C(Cl)Cl)cccc4c3OC(=O)C(Cl)Cl)cc2)s1 (tested in a mixture with another compound) | > 100 µM | > 100 µM |  | 55.2 µM | 55.5 |  | 43 µM | > 100 | > 100 | 82 µM |  |  |  |  |  |  |  |  | 
COC(=O)[C@@]12C(=O)C=CC(=O)C1C1C(=CC2C)OC2OC3(CCCCC3)OC21 (stereo not given in full) | 31.1 µM | 42.8 µM | 33.7 | 33.8 µM | 27.8 |  |  | 33.2 | 31.9 | 33.2 µM |  |  |  |  |  |  |  |  | 
